One may read the IC50 as the midpoint of a concentration-inhibition curve. Read a high IC50 as weaker potency in that assay.

We go through seven compounds from US10913757B2, “Hydroxycinnamic derivatives, methods and uses thereof” (UNIVERSIDADE DO PORTO, priority 2016, dated 2021).

Series [1] can be described thus: ABTS radical cation scavenging activity (TAC assay). Type of series: biochemical. The note with it: ethanol. The source says: (§1) In an embodiment, the AntiOxCINs antioxidant ranking activity hierarchy was established by in vitro non-cell methods. The selected total antioxidant capacity (TAC) assays (DPPH, ABTS and GO) involved the spectrophotometric measurement of the radical absorbance decrease as a result of an in situ radical deactivation by an antioxidant. Compounds with higher antioxidant activity display lower IC50 values. […] This decrease was attenuated/ameliorated by the increment of the spacer length and/or the introduction of additional hydroxyl group in the aromatic ring.
(§2) The radical scavenging activity of AntiOxCINs was evaluated by means of total antioxidant capacity assays based on DPPH., ABTS.^+ and GO. radicals. All these methods involved the spectrophotometric measurement of the absorbance decrease resulting from radical (DPPH., ABTS.^+ or GO.) deactivation with an antioxidant. The results were expressed in IC50, which is defined as the minimum antioxidant concentration necessary to reduce the amount of radical by 50%. Antioxidant assays were performed in a multiplate reader (Powerwave XS Microplate Reader) of Bio-Tech instruments.
In an embodiment, the ABTS.^+ scavenging activity was evaluated as follows: ethanolic solutions of the test compounds with increasing concentrations (range between 10 μM and 500 μM) were prepared. ABTS.^+ radical cation solution was obtained by addition of 150 mM aqueous potassium persulfate solution (163 μL) to 10 mL of 7 mM aqueous ABTS solution followed by storage in the dark at room temperature for 16 h (2.45 mM final concentration). The solution was then diluted in ethanol to reach the absorbance of 0.72±0.02. After addition of the compound (20 μL), in triplicate, to ABTS.^+ solution (180 μL) the spectrophotometric measurement was carried out each minute over 15 minutes. […] Dose-response curves were established for the determination of IC50 values. Data are means±SEM of three independent experiments.

Series [2] can be described thus: Lipophilic properties by electrochemistry at ITIES (transfer potential). The note with it: aqueous phase to 1,6-dichlorohexane, DPV, C=0.32 mM. The format is physicochemical. On the procedure:
In an embodiment, AntiOxCINs lipophilic properties were evaluated at physiological pH by electrochemistry. The used technique is often used to mimic the transfer of ionic drugs through biological membranes as the process occurs at the interface between two immiscible electrolyte solutions (ITIES). The transfer potential (Etr) at which the ionic drug, initially present in the aqueous phase (C=0.32 mM), is transferred to the 1,6-dichlorohexane (DCH) phase is measured by differential pulse voltammetry (DPV). In the ITIES model, the transfer potential (Etr) becomes less positive with the increasing of the drug lipophilic character.
In an embodiment, the electrochemical analytical data was obtained using a computer controlled potentiostat Autolab PGSTAT302N (Metrohm Autolab, Utrecht, Netherlands). Generally, cyclic voltammetry (CV) data was acquired at a scan rate of 50 mVs^−1. Differential pulse voltammetry (DPV) results were acquired at a step potential of 4 mV, pulse amplitude of 50 mV and scan rate of 8 mVs^−1. The electrochemical signals were monitored by the General Purpose Electrochemical System (GPES) version 4.9, software package. All electrochemical experiments were performed at room temperature in an electrochemical cell that was placed in a Faraday cage in order to minimize the contribution of background noise to the analytical signal.
In an embodiment, the process of evaluation of AntiOxCINs redox properties was conducted as follows: stock solutions of each compound (10 mM) were prepared by dissolving the appropriate amount in ethanol. The voltammetric working solutions were prepared in the electrochemical cell, at a final concentration of 0.1 mM. The […] supporting electrolyte was prepared by diluting […] to 100 mL. Voltammetric data was acquired in a three-electrode system consisting of a glassy carbon electrode (GCE, d=2 mm) as working electrode, a counter electrode of platinum wire and a saturated Ag/AgCl reference electrode. In an embodiment, the evaluation of AntiOxCINs lipophilic properties was performed as follows: the electrochemical cell was a four-electrode system with arrays of micro liquid-liquid interfaces (μlTIES) containing two Ag/AgCl reference electrodes and two counter electrodes of Pt, one in each phase. The microporous membrane was sealed with a fluorosilicone sealant (Dow Corning 730) onto a glass cylinder which was filled with 4.0 mL of the aqueous phase, where the aliquots of AntiOxCINs solutions were added. The membrane was then immersed into the organic phase contained in the cell. The organic phase reference solution (a 2 mM BTPPACI+2 mM NaCl aqueous solution) was mechanically stabilized The aqueous supporting electrolyte solution was a Tris-HCl buffer 10 mM pH 7.0.

Series [3] is described as follows: GO radical scavenging activity (TAC assay). Type of series: biochemical. Particulars: ethanol, absorbance 428 nm.
Description: as §1, §2
In an embodiment, the GO′ scavenging activity was evaluated as follows: solutions of test compounds with concentrations from 5 μM to 75 μM were prepared in ethanol. An ethanolic solution of 5 mM GO′ was prepared and diluted to reach the absorbance of 1.00±0.02 at 428 nm. The addition (20 μL) in triplicate of compound solution to GO. solution (180 μL) was followed by absorbance measurement at 428 nm over 30 minutes, in the dark, at room temperature. […] Dose-response curves were established for the determination of IC50 values. Data are means±SEM of three independent experiments.

In the case of `CS(=O)(=O)[O-].O=C(/C=C/c1ccc(O)c(O)c1)NCCCCCC[P+](c1ccccc1)(c1ccccc1)c1ccccc1` [AntiOxCIN2, (E)-(6-(3-(3,4-dihydroxyphenyl)prop-2-enamido)hexyl)triphenylphosphonium methanesulfonate], the IC50 is 30.5 µM in series [1] and 4.1 µM in series [3]. Further, the “Etr (transfer potential)” value in series [2] was 0.396 V.
With `CS(=O)(=O)[O-].O=C(/C=C/c1ccc(O)c(O)c1)NCCCCCCCC[P+](c1ccccc1)(c1ccccc1)c1ccccc1` [AntiOxCIN3, (E)-(8-(3-(3,4-dihydroxyphenyl)acrylamido)octyl)triphenylphosphoniummethanesulfonate], the figures for the IC50 in series [1] and in series [3] were 27.9 µM and 2.8 µM, respectively. Also, in series [2], the “Etr (transfer potential)” value is reported as 0.345 V.
On the same counts, the results for `CS(=O)(=O)[O-].O=C(/C=C/c1cc(O)c(O)c(O)c1)NCCCCCC[P+](c1ccccc1)(c1ccccc1)c1ccccc1` [AntiOxCIN4, (E)-(6-(3-(3,4,5-trihydroxyphenyl)prop-2-enamido)hexyl)triphenylphosphonium methanesulfonate] are 12.2 µM, 3.1 µM and 0.498 V.
On the same counts, the results for `CS(=O)(=O)[O-].O=C(/C=C/c1cc(O)c(O)c(O)c1)NCCCCCCCC[P+](c1ccccc1)(c1ccccc1)c1ccccc1` [AntiOxCIN5, (E)-(8-(3-(3,4,5-trihydroxyphenyl)acrylamido)octyl)triphenylphosphonium methanesulfonate] are 8.7 µM, 2.3 µM and 0.423 V.
With `CS(=O)(=O)[O-].O=C(/C=C/c1ccc(O)c(O)c1)NCCCCCCCCCC[P+](c1ccccc1)(c1ccccc1)c1ccccc1` [AntiOxCIN6, (E)-(10-(3-(3,4-dihydroxyphenyl)acrylamido)decyl)triphenylphosphonium methanesulfonate], the values for the IC50 in series [1] and in series [3] were 23.5 µM and 2.7 µM, respectively. In addition, the “Etr (transfer potential)” value in series [2] is listed as 0.291 V.
In the same order, the values of `CS(=O)(=O)[O-].O=C(/C=C/c1cc(O)c(O)c(O)c1)NCCCCCCCCCC[P+](c1ccccc1)(c1ccccc1)c1ccccc1` [AntiOxCIN7, (E)-(10-(3-(3,4,5-trihydroxyphenyl)acrylamido)decyl)triphenylphosphonium methanesulfonate] are 7.5 µM, 2.5 µM and 0.377 V.
Regarding `O=C(O)/C=C/c1ccc(O)c(O)c1` [Caffeic acid, caffeic acid, reference compound], the 50% inhibitory concentration (IC50) in series [1] was determined as 17.9 µM; in series [3], 3.4 µM.
